Test results from ChEMBL document CHEMBL3352360, “Two new spirooxindole alkaloids from rhizosphere strain Streptomyces sp. xzqh-9” (Bioorg Med Chem Lett, 2014).
The source made the active and inactive calls. No cut-off for these calls is given here.

Assays:
[1] = tested on: HepG2; assay: Antiproliferative activity against human HepG2 cells assessed as inhibition of cell proliferation at 10 to 100 uM; format: functional
[2] = molecular target: L-lactate dehydrogenase (Homo sapiens) (UniProt V9HWB9); assay: Inhibition of LDH (unknown origin) at 10 uM by biochemical assay
[3] = Retention factor of the compound on TLC over silica gel; format: physicochemical
[4] = tested on: A549; assay: Antiproliferative activity against human A549 cells assessed as inhibition of cell proliferation at 10 to 100 uM; format: functional
[5] = tested on: BaF3; assay: Inhibition of Bcr-Abl (unknown origin) expressed in BaF3 cells at 30 uM; format: cell-based; details: Homo sapiens
[6] = Antiproliferative activity against human BGC823 cells assessed as inhibition of cell proliferation at 10 to 100 uM; format: functional, BGC-823
[7] = tested on: MCF7; assay: Antiproliferative activity against human MCF7 cells assessed as inhibition of cell proliferation at 10 to 100 uM; format: functional

Row | inhibition [2] | Rf [3] | SMILES | inhibition (INH) [1] [%] | inhibition (INH) [4] [%] | inhibition [5] | inhibition (INH) [6] [%] | inhibition (INH) [7] [%]
1 | inactive | 0.67 | CC1=C(O)C(=O)C2=C(CCC2)[C@]12C(=O)N(C)c1ccccc12 | <10 | <10 | 15% | <10 | <10
2 | inactive | 0.8 | C[C@@H]1[C@@H](O)C(=O)C2=C(CCC2)[C@]12C(=O)N(C)c1ccccc12 | <10 | <10 | inactive | <10 | <10
